Data as given in publication PMC11859928, “Design, Synthesis, and Antiproliferative Activity of Novel Indole/1,2,4-Triazole Hybrids as Tubulin Polymerization Inhibitors” (Pharmaceuticals, 2025).
Read-outs that look alike come from different tables or passages of the source.

Assays:
Assay type in all cases: cell-based, human
UO-31 = assay: NCI five-dose assay; details: for CC50 / GI50: Homo sapiens; for CC50: read-out: LC50 (the source's name); for GI50: read-out: GI50 Conc. per Cell Lines
SK-MEL-2 = assay: NCI five-dose assay; details: for CC50 / GI50: Homo sapiens; for CC50: read-out: LC50 (the source's name); for GI50: read-out: GI50 Conc. per Cell Lines
OVCAR-8 = assay: NCI five-dose assay; details: for CC50 / GI50: Homo sapiens; for CC50: read-out: LC50 (the source's name); for GI50: read-out: GI50 Conc. per Cell Lines
786-0 = assay: NCI five-dose assay; details: for LC50 (50% lethal concentration) / GI50: Homo sapiens; for GI50: read-out: GI50 Conc. per Cell Lines
SK-MEL-28 = assay: NCI five-dose assay; details: for CC50 / GI50: Homo sapiens; for CC50: read-out: LC50 (the source's name); for GI50: read-out: GI50 Conc. per Cell Lines
PC-3 = assay: NCI five-dose assay; details: for CC50 / GI50: Homo sapiens; for CC50: read-out: LC50 (the source's name); for GI50: read-out: GI50 Conc. per Cell Lines
SK-MEL-5 = assay: NCI five-dose assay; details: for CC50 / GI50: Homo sapiens; for CC50: read-out: LC50 (the source's name); for GI50: read-out: GI50 Conc. per Cell Lines
SNB-19 = assay: NCI five-dose assay; details: for CC50 / GI50: Homo sapiens; for CC50: read-out: LC50 (the source's name); for GI50: read-out: GI50 Conc. per Cell Lines
OVCAR-3 = assay: NCI five-dose assay; details: for LC50 / GI50: Homo sapiens; for GI50: read-out: GI50 Conc. per Cell Lines
OVCAR-5 = assay: NCI five-dose assay; details: for LC50 / GI50: Homo sapiens; for GI50: read-out: GI50 Conc. per Cell Lines
KM12 = assay: NCI five-dose assay; details: for CC50 / GI50: Homo sapiens; for CC50: read-out: LC50 (the source's name); for GI50: read-out: GI50 Conc. per Cell Lines
Breast cancer subpanel = assay: NCI five-dose assay, subpanel mean; details: for GI50 Selectivity Ratio (MID a/MID b): Breast cancer subpanel; for GI50: Homo sapiens, read-out: GI50 Subpanel MID b
[1] = average sensitivity of all cell lines of the Breast cancer subpanel

SMILES: Cc1ccc(C(=O)CSc2nnc(-c3c[nH]c4ccccc34)n2-c2ccccc2)cc1 [Compound 6h, 2-((5-(1H-Indol-3-yl)-4-phenyl-4H-1,2,4-triazol-3-yl)thio)-1-(p-tolyl)ethenone]
- CC50 (UO-31; UO-31, Renal cancer, 48 h): 69.5 µM
- GI50 (UO-31; UO-31, Renal cancer): 14.2 µM
- TGI Conc. per Cell Lines (UO-31; UO-31, Renal cancer): 31.40 µM
- CC50 (SK-MEL-2; SK-MEL-2, Melanoma, 48 h): > 100 µM
- GI50 (SK-MEL-2; SK-MEL-2, Melanoma): 30.2 µM
- TGI Conc. per Cell Lines (SK-MEL-2; SK-MEL-2, Melanoma): >100 µM
- CC50 (OVCAR-8; OVCAR-8, Ovarian cancer, 48 h): > 100 µM
- GI50 (OVCAR-8; OVCAR-8, Ovarian cancer): 24.5 µM
- TGI Conc. per Cell Lines (OVCAR-8; OVCAR-8, Ovarian cancer): ˃100 µM
- TGI Conc. per Cell Lines (786-0; 786-0, Renal cancer): 31.20 µM
- LC50 (50% lethal concentration) (786-0; 786-0, Renal cancer, 48 h): 66.4 µM
- GI50 (786-0; 786-0, Renal cancer): 14.7 µM
- CC50 (SK-MEL-28; SK-MEL-28, Melanoma, 48 h): > 100 µM
- GI50 (SK-MEL-28; SK-MEL-28, Melanoma): 19.6 µM
- TGI Conc. per Cell Lines (SK-MEL-28; SK-MEL-28, Melanoma): 52.10 µM
- CC50 (PC-3; PC-3, Prostate cancer, 48 h): > 100 µM
- GI50 (PC-3; PC-3, Prostate cancer): 12.4 µM
- TGI Conc. per Cell Lines (PC-3; PC-3, Prostate cancer): 37.80 µM
- CC50 (SK-MEL-5; SK-MEL-5, Melanoma, 48 h): 92.4 µM
- GI50 (SK-MEL-5; SK-MEL-5, Melanoma): 16.5 µM
- TGI Conc. per Cell Lines (SK-MEL-5; SK-MEL-5, Melanoma): 39.10 µM
- CC50 (SNB-19; SNB-19, CNS cancer, 48 h): 75.3 µM
- GI50 (SNB-19; SNB-19, CNS cancer): 15.8 µM
- TGI Conc. per Cell Lines (SNB-19; SNB-19, CNS cancer): 34.50 µM
- LC50 (OVCAR-3; OVCAR-3, Ovarian cancer, 48 h): > 100 µM
- GI50 (OVCAR-3; OVCAR-3, Ovarian cancer): 18 µM
- TGI Conc. per Cell Lines (OVCAR-3; OVCAR-3, Ovarian cancer): 43.20 µM
- LC50 (OVCAR-5; OVCAR-5, Ovarian cancer, 48 h): 71.5 µM
- GI50 (OVCAR-5; OVCAR-5, Ovarian cancer): 19.4 µM
- TGI Conc. per Cell Lines (OVCAR-5; OVCAR-5, Ovarian cancer): 37.20 µM
- CC50 (KM12; KM12, Colon cancer, 48 h): > 100 µM
- GI50 (KM12; KM12, Colon cancer): 36.1 µM
- TGI Conc. per Cell Lines (KM12; KM12, Colon cancer): >100 µM
- GI50 Selectivity Ratio (MID a/MID b) (Breast cancer subpanel): 1.07
- GI50 (Breast cancer subpanel; [1]): 18 µM

SMILES: Cc1ccc(/C(CSc2nnc(-c3c[nH]c4ccccc34)n2-c2ccccc2)=N/O)cc1 [Compound 7h, (Z)-2-((5-(1H-Indol-3-yl)-4-phenyl-4H-1,2,4-triazol-3-yl)thio)-1-(p-tolyl)ethanone Oxime]
- CC50 (UO-31; UO-31, Renal cancer, 48 h): 9.47 µM
- GI50 (UO-31; UO-31, Renal cancer): 1.82 µM
- TGI Conc. per Cell Lines (UO-31; UO-31, Renal cancer): 4.15 µM
- CC50 (SK-MEL-2; SK-MEL-2, Melanoma, 48 h): > 100 µM
- GI50 (SK-MEL-2; SK-MEL-2, Melanoma): 2.88 µM
- TGI Conc. per Cell Lines (SK-MEL-2; SK-MEL-2, Melanoma): 8.96 µM
- GI50 (OVCAR-8; OVCAR-8, Ovarian cancer): 2.19 µM
- TGI Conc. per Cell Lines (OVCAR-8; OVCAR-8, Ovarian cancer): 4.89 µM
- TGI Conc. per Cell Lines (786-0; 786-0, Renal cancer): 31.40 µM
- LC50 (50% lethal concentration) (786-0; 786-0, Renal cancer, 48 h): 98.1 µM
- GI50 (786-0; 786-0, Renal cancer): 10 µM
- CC50 (SK-MEL-28; SK-MEL-28, Melanoma, 48 h): > 100 µM
- GI50 (SK-MEL-28; SK-MEL-28, Melanoma): 5.67 µM
- TGI Conc. per Cell Lines (SK-MEL-28; SK-MEL-28, Melanoma): 38.7 µM
- GI50 (PC-3; PC-3, Prostate cancer): 1.77 µM
- TGI Conc. per Cell Lines (PC-3; PC-3, Prostate cancer): 3.74 µM
- CC50 (SK-MEL-5; SK-MEL-5, Melanoma, 48 h): > 100 µM
- GI50 (SK-MEL-5; SK-MEL-5, Melanoma): 4.76 µM
- TGI Conc. per Cell Lines (SK-MEL-5; SK-MEL-5, Melanoma): 48.1 µM
- CC50 (SNB-19; SNB-19, CNS cancer, 48 h): 8.46 µM
- GI50 (SNB-19; SNB-19, CNS cancer): 1.87 µM
- TGI Conc. per Cell Lines (SNB-19; SNB-19, CNS cancer): 3.97 µM
- LC50 (OVCAR-3; OVCAR-3, Ovarian cancer, 48 h): > 100 µM
- GI50 (OVCAR-3; OVCAR-3, Ovarian cancer): 4.26 µM
- LC50 (OVCAR-5; OVCAR-5, Ovarian cancer, 48 h): 5.73 µM
- GI50 (OVCAR-5; OVCAR-5, Ovarian cancer): 1.69 µM
- TGI Conc. per Cell Lines (OVCAR-5; OVCAR-5, Ovarian cancer): 3.11 µM
- CC50 (KM12; KM12, Colon cancer, 48 h): > 100 µM
- GI50 (KM12; KM12, Colon cancer): 8.64 µM
- TGI Conc. per Cell Lines (KM12; KM12, Colon cancer): >100 µM
- GI50 Selectivity Ratio (MID a/MID b) (Breast cancer subpanel): 1.58
- GI50 (Breast cancer subpanel; [1]): 1.9 µM

SMILES: O/N=C(\CSc1nnc(-c2c[nH]c3ccccc23)n1-c1ccccc1)c1ccc(Cl)cc1 [Compound 7j, (Z)-2-((5-(1H-Indol-3-yl)-4-phenyl-4H-1,2,4-triazol-3-yl)thio)-1-(4-chlorophenyl) Ethanone Oxime]
- GI50 (UO-31; UO-31, five dose levels): 2.88 µM
- CC50 (UO-31; UO-31, five dose levels): 71.1 µM
- TGI Conc. per Cell Lines (UO-31; UO-31, five dose levels): 15.7 µM
- GI50 (SK-MEL-2; SK-MEL-2, five dose levels): 3.64 µM
- CC50 (SK-MEL-2; SK-MEL-2, five dose levels): > 100 µM
- GI50 (OVCAR-8; OVCAR-8, five dose levels): 3.72 µM
- CC50 (OVCAR-8; OVCAR-8, five dose levels): > 100 µM
- TGI Conc. per Cell Lines (OVCAR-8; OVCAR-8, five dose levels): 15.8 µM
- TGI Conc. per Cell Lines (786-0; 786-0, five dose levels): >100 µM
- LC50 (50% lethal concentration) (786-0; 786-0, five dose levels): 93.5 µM
- GI50 (786-0; 786-0, five dose levels): 7.29 µM
- GI50 (SK-MEL-28; SK-MEL-28, five dose levels): 4.41 µM
- CC50 (SK-MEL-28; SK-MEL-28, five dose levels): 57.7 µM
- TGI Conc. per Cell Lines (SK-MEL-28; SK-MEL-28, five dose levels): >100 µM
- GI50 (PC-3; PC-3, five dose levels): 2.31 µM
- CC50 (PC-3; PC-3, five dose levels): > 100 µM
- TGI Conc. per Cell Lines (PC-3; PC-3, five dose levels): 7.29 µM
- GI50 (SK-MEL-5; SK-MEL-5, five dose levels): 3.87 µM
- CC50 (SK-MEL-5; SK-MEL-5, five dose levels): 38.7 µM
- TGI Conc. per Cell Lines (SK-MEL-5; SK-MEL-5, five dose levels): 19.5 µM
- GI50 (SNB-19; SNB-19, five dose levels): 6.89 µM
- CC50 (SNB-19; SNB-19, five dose levels): > 100 µM
- TGI Conc. per Cell Lines (SNB-19; SNB-19, five dose levels): 45.2 µM
- LC50 (OVCAR-3; OVCAR-3, five dose levels): > 100 µM
- GI50 (OVCAR-3; OVCAR-3, five dose levels): 4.58 µM
- TGI Conc. per Cell Lines (OVCAR-3; OVCAR-3, five dose levels): 32.4 µM
- LC50 (OVCAR-5; OVCAR-5, five dose levels): > 100 µM
- GI50 (OVCAR-5; OVCAR-5, five dose levels): 3.37 µM
- TGI Conc. per Cell Lines (OVCAR-5; OVCAR-5, five dose levels): 11.4 µM
- GI50 (KM12; KM12, five dose levels): 4.72 µM
- CC50 (KM12; KM12, five dose levels): > 100 µM
- TGI Conc. per Cell Lines (KM12; KM12, five dose levels): >100 µM
- GI50 Selectivity Ratio (MID a/MID b) (Breast cancer subpanel): 1.24
- GI50 (Breast cancer subpanel; Breast cancer, average sensitivity of all cell lines of the subpanel): 2.93 µM
